# Reference: patent US20050124660A1, “Novel medical uses of compounds showing CB1-antagonistic activity and combination treatment involving said compounds” (priority 2003, published 2005)
# Read-outs that look alike come from different tables or passages of the source.
# Assays:
# DTH response = conditions: mice, 0.781-50 mg/kg (i.p.) or 0.5 mg/kg (per os); cited from earlier work
# [1] = test system: carragheenin-induced swelling; conditions: mice; cited from earlier work
# [2] = patients on atypical antipsychotics; cited from earlier work
# [3] = cited from earlier work
# [4] = molecular target: T1, human cannabis CB1 receptor (Homo sapiens, UniProt P21554); test: In vitro affinity for cannabinoid CB1 receptors, [3H]CP-55,940 radioligand, CHO cell membrane preparations; assay type: binding
# T1 construct: expressed in transfected cells; host or cells: Chinese hamster ovary (CHO) cells, stably transfected; membrane preparation
# T1 sequence (P21554 whole entry): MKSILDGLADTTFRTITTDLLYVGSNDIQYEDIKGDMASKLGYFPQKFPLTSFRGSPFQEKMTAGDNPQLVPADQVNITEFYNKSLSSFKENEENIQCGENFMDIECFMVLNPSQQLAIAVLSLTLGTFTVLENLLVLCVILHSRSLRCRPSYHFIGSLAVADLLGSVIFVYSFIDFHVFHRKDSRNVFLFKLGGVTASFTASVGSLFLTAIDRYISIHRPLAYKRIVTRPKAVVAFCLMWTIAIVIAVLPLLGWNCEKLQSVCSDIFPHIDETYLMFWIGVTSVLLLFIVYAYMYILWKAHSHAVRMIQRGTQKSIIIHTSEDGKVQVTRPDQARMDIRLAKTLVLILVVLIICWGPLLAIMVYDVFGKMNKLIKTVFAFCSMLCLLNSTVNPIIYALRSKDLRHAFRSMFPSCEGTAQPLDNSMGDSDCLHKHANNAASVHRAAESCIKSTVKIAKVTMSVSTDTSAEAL
# Experimental: After incubation of a freshly prepared cell membrane preparation with the [3H]-ligand, with or without addition of compounds of the invention, separation of bound and free ligand was performed by filtration over glass fibre filters. Radioactivity on the filter was measured by liquid scintillation counting.
# [5] = molecular target: T2, porcine pancreatic lipase (Sus scrofa, UniProt P00591); conditions: cited from earlier work; for inhibitory activity, fold stronger than that of THL: porcine pancreatic lipase, relative to THL; for IC50: read-out: IC50 for inhibition of hydrolysis of triolein by porcine pancreatic lipase
# T2 sequence (P00591 1-450): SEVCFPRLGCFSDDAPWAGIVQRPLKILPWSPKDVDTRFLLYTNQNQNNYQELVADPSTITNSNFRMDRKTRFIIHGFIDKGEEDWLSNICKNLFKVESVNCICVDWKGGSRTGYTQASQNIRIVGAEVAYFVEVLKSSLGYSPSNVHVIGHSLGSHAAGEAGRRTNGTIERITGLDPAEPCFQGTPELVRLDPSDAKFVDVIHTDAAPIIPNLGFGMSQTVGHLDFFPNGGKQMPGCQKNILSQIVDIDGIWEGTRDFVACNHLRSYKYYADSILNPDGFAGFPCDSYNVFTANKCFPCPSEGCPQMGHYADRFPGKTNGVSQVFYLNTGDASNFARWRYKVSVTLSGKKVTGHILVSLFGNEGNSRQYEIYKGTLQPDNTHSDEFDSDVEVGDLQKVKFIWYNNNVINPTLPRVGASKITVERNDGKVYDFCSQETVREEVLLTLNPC
# plasma lipases = conditions: cited from earlier work; for IC50: read-out: IC50 for inhibition of plasma lipases
# [6] = test system: bacterial and fungal lipases; conditions: cited from earlier work
# [7] = molecular target: T3, human cannabinoid CB1 receptors (Homo sapiens, UniProt P21554); test: In vitro CB1 antagonism, functional studies in CHO cells expressing human CB1 receptor; assay type: cell-based
# T3 construct: expressed in transfected cells
# T3 sequence (P21554 whole entry): as the sequence (P21554 whole entry) above
# Experimental: The cannabinoid CB1 antagonistic activity of compounds of the formulas (I), (II), III), (IV) or (V) is also described in the WO 03/026647, WO 03/027076, WO 03/026648 or WO 03/078413, and was determined by functional studies using CHO cells in which human cannabinoid CB1 receptors are stably expressed. Adenylyl cyclase was stimulated using forskolin and measured by quantifying the amount of accumulated cyclic AMP. Concomitant activation of CB1 receptors by CB1 receptor agonists (e.g. CP-55,940 or (R)-WIN-55,212-2) can attenuate the forskolin-induced accumulation of cAMP in a concentration-dependent manner. This CB1 receptor-mediated response can be antagonized by CB1 receptor antagonists such as the compounds used in the present invention.
# The cannabinoid CB1 receptor antagonistic, agonistic or partial agonistic activity of compounds e.g. formula (V) of the invention can be also determined by functional studies using the human CB1 receptor cloned in Chinese hamster ovary (CHO) cells according to the following protocol. CHO cells were grown in a DMEM culture medium, supplemented with 10% heat-inactivated fetal calf serum. Medium was aspirated and replaced by DMEM, without fetal calf serum, but containing [^3H]-Arachidonic acid and incubated overnight in a cell culture stove (5% CO2/95% air; 37° C.; water-saturated atmosphere). During this period [^3H]-Arachidonic acid was incorporated in membrane phospholipids. On the test day, medium was aspirated and cells were washed three times using 0.5 ml phosphate-buffered saline, containing 0.2% bovine serum albumin. Stimulation of the CB1 receptor by WIN 55,212-2 led to activation of PLA2 followed by release of [^3H]-Arachidonic acid into the medium. This WIN 55,212-2-induced release was concentration-dependently antagonized by CB1 receptor antagonists.
# [8] = in vivo; cited from earlier work
# [9] = cited from earlier work; remark: listed apart in the source
# [10] = Human cannabinoid-CB1 receptors, read-out: In vitro affinity pK1 value (converted)
# [11] = treatment groups 60, 120 and 240 mg
structure (smiles),measurement,setting,value
CC[C@@H](C)[C@@H](O)[C@H](C)C(=O)[C@H](C)/C=C(\C)C[C@H](C)[C@@H]1OC(=O)[C@H]1CC [Ebelactone B],development of DTH response,DTH response,enhances the development of DTH response
same,carragheenin-induced swelling,[1],reduces carragheenin-induced swelling
OCCOCCN1CCN(C2=Nc3ccccc3Sc3ccccc32)CC1 [quetiapine],weight change with long-term treatment,[2],smallest
"CCCCCCCCCCC[C@@H](C[C@@H]1OC(=O)[C@H]1CCCCCC)OC(=O)[C@H](CC(C)C)NC=O [tetrahydrolipstatin, (2S,3S,5S)-5-((S)-2-4-methylvaleryloxy)-2-heyl-3-hydroxy-hexadecanoic acid lactone]","fat excreted, average","[3]; 120 mg tid, 5 days, placebo 1.4 g/day",5.6 (+1-3.8) g/day
O=C1Cc2cc(CCN3CCN(c4nsc5ccccc45)CC3)c(Cl)cc2N1 [ziprasidone],weight change with long-term treatment,[2],smallest
Cl.O=C(NN1CCCCC1)c1nc(-c2ccc(Cl)cc2)n(-c2ccc(Cl)cc2Cl)n1,melting point,,238 to 240 °C (dec.)
"CCCCCNC(=O)c1nc(-c2ccc(Cl)cc2Cl)n(-c2ccc(Cl)cc2)n1 [Example 11, 1-(4-Chlorophenyl)-5-(2,4-dichlorophenyl)-N-(n-pentyl)-1H-1,2,4-triazole-3-carboxamide]",Ki,[4],501 nM
CC(C)(C)ONC(=O)c1nc(-c2ccc(Cl)cc2)n(-c2ccc(Cl)cc2Cl)n1,melting point,,150 to 152 °C
"O=C(NN1CCOCC1)c1nc(-c2ccc(Cl)cc2)n(-c2ccc(Cl)cc2Cl)n1 [Example 6, 5-(4-Chlorophenyl)-1-(2,4-dichlorophenyl)-N-(morpholin-4-yl)-1H-1,2,4-triazole-3-carboxamide]",melting point,,184 to 186 °C
Cl.O=C(NN1CCCC1)c1nc(-c2ccc(Cl)cc2Cl)n(-c2ccc(Cl)cc2)n1,melting point,,234 to 236 °C (dec.)
Cc1nc2n(c(=O)c1CCN1CCC(c3noc4cc(F)ccc34)CC1)CCCC2 [Risperidone],weight change with long-term treatment,[2],modest weight changes that are not dose related
"O=C(NN1CCCCC1)c1nc(-c2ccccn2)n(-c2ccc(Cl)cc2Cl)n1 [Example 13, 1-(2,4-Dichlorophenyl)-5-(pyridin-2-yl)-N-(piperidin-1-yl)-1H-1,2,4-triazole-3-carboxamide]",melting point,,191 to 193 °C
"O=C(NN1CCCCC1)c1nc(-c2ccc(Cl)cc2Cl)n(-c2ccc(C(F)(F)F)cc2)n1 [Example 14, 5-(2,4-Dichlorophenyl)-N-(piperidin-1-yl)-1-(4-(trifluoromethyl)phenyl)-1H-1,2,4-triazole-3-carboxamide]",melting point,,159 to 161 °C
CCCCCCCCCCCC[C@@H]1C(=O)O[C@H]1C[C@H](CCCCCCC)OC(=O)CNC=O [Panclicin E],irreversibility of pancreatic lipase inhibition,[5],irreversibly inhibit pancreatic lipase
same,"inhibitory activity, fold stronger than that of THL",[5],2 fold
same,IC50,[5],890 nM
same,IC50,plasma lipases,150 nM
same,inhibition of bacterial and fungal lipases,[6],profiles similar to those for porcine pancreatic lipase
"CCCCCNC(=O)c1nc(-c2ccc(Cl)cc2)n(-c2ccc(Cl)cc2Cl)n1 [Example 5, 5-(4-Chlorophenyl)-1-(2,4-dichlorophenyl)-N-(n-pentyl)-1H-1,2,4-triazole-3-carboxamide]",Ki,[4],126 nM
CC[C@@H](C)[C@@H](O)[C@H](C)C(=O)[C@H](C)/C=C(\C)C[C@H](C)[C@@H]1OC(=O)[C@H]1C [Ebelactone A],development of DTH response,DTH response,enhances the development of DTH response
"O=C(NC1CCCCC1)c1nc(-c2ccc(Cl)cc2)n(-c2ccc(Cl)cc2Cl)n1 [Example 3, 5-(4-Chlorophenyl)-N-cyclohexyl-1-(2,4-dichlorophenyl)-1H-1,2,4-triazole-3-carboxamide]",Ki,[4]; [10],126 nM
same,Kb,[7],2 nM
same,melting point,,186 to 188 °C
"CCCCCCCCCCCCCCCCOc1nc2ccc(C)cc2c(=O)o1 [ATL-962, 2-hexadecyloxy-6-methyl-4H-3,1-benzoxazin-4-one]",preclinical toxicity,[8],no toxicity was observed
same,subjects with a 3-fold or greater increase in fat excretion compared to placebo,[3]; 50 mg to 300 mg,55%
same,subjects with a 7-fold or greater increase in fat excretion compared to placebo,[3]; 50 mg to 300 mg,27%
same,safety and tolerability,"[3]; phase Ib, healthy male volunteers",safe and well tolerated
same,weight compared to placebo,"[9]; 60, 120 and 240 mg, obese patients",significant reduction in weight
same,safety and tolerability,"[9]; phase IIb, obese patients",safe and generally well tolerated
same,HDL-cholesterol levels,[9]; [11],no difference
same,LDL-cholesterol,[9]; [11],decreased
same,Total cholesterol,[9]; [11],decreased
CCCCCCC[C@@H](C[C@@H]1OC(=O)[C@H]1CCCCCCCC(C)C)OC(=O)CNC=O [Panclicin C],irreversibility of pancreatic lipase inhibition,[5],irreversibly inhibit pancreatic lipase
same,"inhibitory activity, fold stronger than that of THL",[5],2 fold
same,IC50,[5],620 nM
same,IC50,plasma lipases,290 nM
same,inhibition of bacterial and fungal lipases,[6],profiles similar to those for porcine pancreatic lipase
CCCCCCC[C@@H](C[C@@H]1OC(=O)[C@H]1CCCCCCCC(C)C)OC(=O)[C@H](C)NC=O [Panclicin A],irreversibility of pancreatic lipase inhibition,[5],irreversibly inhibit pancreatic lipase
same,IC50,[5],2900 nM
same,IC50,plasma lipases,1000 nM
same,potency on plasma lipases compared with THL,plasma lipases; relative to THL,same potency as THL
same,inhibition of bacterial and fungal lipases,[6],profiles similar to those for porcine pancreatic lipase
Cc1cc2c(s1)Nc1ccccc1N=C2N1CCN(C)CC1 [olanzapine],weight change with long-term treatment,[2],largest weight gains
"O=C(NC1CCCCC1)c1nc(-c2ccc(Cl)cc2Cl)n(-c2ccc(Cl)cc2)n1 [Example 9, 1-(4-Chlorophenyl)-N-cyclohexyl-5-(2,4-dichlorophenyl)-1H-1,2,4-triazole-3-carboxamide]",Ki,[4]; [10],39.8 nM
same,Kb,[7],6.31 nM
"O=C(NN1CCCCC1)c1nc(-c2cccnc2)n(-c2ccc(Cl)cc2Cl)n1 [Example 16, 1-(2,4-Dichlorophenyl)-N-(piperidin-1-yl)-5-(pyridin-3-yl)-1H-1,2,4-triazole-3-carboxamide]",melting point,,219 °C
Cl.O=C(NN1CCOCC1)c1nc(-c2ccc(Cl)cc2Cl)n(-c2ccc(Cl)cc2)n1,melting point,,224 to 226 °C
"Cl.O=C(NN1CCCC1)c1nc(-c2ccc(Cl)cc2)n(-c2ccc(Cl)cc2Cl)n1 [Example 2, 5-(4-Chlorophenyl)-1-(2,4-dichlorophenyl)-N-(pyrrolidin-1-yl)-1H-1,2,4-triazole-3-carboxamide hydrochloride]",Ki,[4]; [10],251 nM
same,Kb,[7],63.1 nM
same,melting point,,248 to 255 °C (dec.)
CCCCCCCCCC[C@@H]1C(=O)O[C@H]1C[C@H](CCCCCCC)OC(=O)CNC=O [Panclicin D],irreversibility of pancreatic lipase inhibition,[5],irreversibly inhibit pancreatic lipase
same,"inhibitory activity, fold stronger than that of THL",[5],2 fold
same,IC50,[5],660 nM
same,IC50,plasma lipases,250 nM
same,inhibition of bacterial and fungal lipases,[6],profiles similar to those for porcine pancreatic lipase
